In patent publication US20250066345A1, “COMPOSITIONS AND METHODS OF USE TO TREAT 12-LIPOXYGENASE (12-LOX) MEDIATED DISEASES” (VERALOX THERAPEUTICS, priority 2021, published 2025):
pIC50: −log10 of the molar value.

Legend:
12-LOX = 12-LOX (Homo sapiens (Human), UniProt P18054); experiment: 12-LOX IC50 determination, UV-Vis assay with arachidonic acid substrate; format: biochemical; conditions: 30 nM 12-LOX, 50 μM AA, absorbance of 12-HPETE at 234 nm
Description: (§1) The compounds were evaluated for inhibition of 12-LOX, as well as selectivity by measuring inhibition against 15-LOX for some compounds, using a UV-Vis assay. Arachidonic acid (AA) was used as a substrate for 12-LOX and 15-LOX. ML355 was used as the control inhibitor for 12-LOX. ML351 (5-(Methylamino)-2-(1-naphthalenyl)-4-oxazolecarbonitrile) was used as the control inhibitor for 15-LOX.
(§2) Reaction buffers used for the lipoxygenase assay were as follows: 25 mM HEPES (pH 7.5), with 0.01% Triton X-100. 1 mM 12-HPETE or 1 mM 15-HPETE stock solution was prepared in 25 mM HEPES with 0.01% Triton X-100.
The standard curve of 12-HPETE was made by serial dilution of 0, 6.25, 12.5, 25, 50, 75 and 100 μM, and the final reaction volume in 96 Well Clear Flat Bottom UV-Transparent Microplate is 100 μL. The absorbance of the 12-HPETE at each concentration was measured at 234 nm.
(§3) IC50 values were obtained by determining the % inhibition at various inhibitor concentrations. The final concentrations of the control inhibitors and test compounds in the IC50 determination assay are 0, 0.03, 0.1, 0.3, 1, 3, 10 and 20 μM. The final concentration of DMSO in the assay is 0.05%.
12-LOX IC50 determination. The 12-LOX enzyme and AA were diluted in the HEPES buffer to 120 nM and 200 μM, respectively. Pre-incubation 50 μL of indicated test compounds and 25 μL 120 nM enzyme at room temperature for 5 min. The reaction is started by adding 25 μL 200 μM AA. After a short spin (1000 rpm, 15 s), incubate the reaction system for 5 min. The blank control was set by adding 25 μL HEPES to 50 μL of control inhibitor compound (MHL355) and 25 μL 200 μM AA. The final concentrations of 12-LOX enzyme and AA were 30 nM and 50 μM, respectively. The absorbance of the 12-HPETE at 234 nm was measured.
(§4) The IC50 value was calculated by using GraphPad Prism 8.0.2.
(§5) The IC50 values are calculated with remaining activity (%) and logarithm of inhibitor concentrations.
(§6) Remaining Activity (%)=OD value inhibitor/OD value vehicle×100

15-LOX = 15-LOX (Homo sapiens (Human), UniProt P16050); experiment: 15-LOX IC50 determination, UV-Vis assay with arachidonic acid substrate (selectivity); format: biochemical; conditions: selectivity for 12-LOX over 15-LOX; 120 nM 15-LOX, AA substrate
Description: as §1, §2
The standard curve of 15-HPETE was made by serial dilution of 0, 3.125, 6.25, 12.5, 25, 50 and 100 μM, and the final reaction volume in 96 Well Clear Flat Bottom UV-Transparent Microplate is 100 μL. The absorbance of the […] at each concentration was measured at 234 nm.
as §3
15-LOX IC50 determination. The 15-LOX enzyme and AA were diluted in the HEPES buffer to 480 nM and 200 μM, respectively. Pre-incubation 50 μL of indicated test compounds and 25 μL 480 nM enzyme at room temperature for 5 min. The reaction is started by adding 25 μL 200 μM AA. After a short spin (1000 rpm, 15 s), incubate the reaction system for 3 min. The blank control was set by adding 25 μL HEPES to 50 μL of control inhibitor compound (MHL355) and 25 μL 200 μM AA. The final concentrations of 15-LOX enzyme and AA were 120 nM and 50 µM, respectively. The absorbance of the 15-HPETE at 234 nm was measured. The assay was performed in duplicate.
as §4, §5, §6

15-LOX, sequence (P16050 whole entry): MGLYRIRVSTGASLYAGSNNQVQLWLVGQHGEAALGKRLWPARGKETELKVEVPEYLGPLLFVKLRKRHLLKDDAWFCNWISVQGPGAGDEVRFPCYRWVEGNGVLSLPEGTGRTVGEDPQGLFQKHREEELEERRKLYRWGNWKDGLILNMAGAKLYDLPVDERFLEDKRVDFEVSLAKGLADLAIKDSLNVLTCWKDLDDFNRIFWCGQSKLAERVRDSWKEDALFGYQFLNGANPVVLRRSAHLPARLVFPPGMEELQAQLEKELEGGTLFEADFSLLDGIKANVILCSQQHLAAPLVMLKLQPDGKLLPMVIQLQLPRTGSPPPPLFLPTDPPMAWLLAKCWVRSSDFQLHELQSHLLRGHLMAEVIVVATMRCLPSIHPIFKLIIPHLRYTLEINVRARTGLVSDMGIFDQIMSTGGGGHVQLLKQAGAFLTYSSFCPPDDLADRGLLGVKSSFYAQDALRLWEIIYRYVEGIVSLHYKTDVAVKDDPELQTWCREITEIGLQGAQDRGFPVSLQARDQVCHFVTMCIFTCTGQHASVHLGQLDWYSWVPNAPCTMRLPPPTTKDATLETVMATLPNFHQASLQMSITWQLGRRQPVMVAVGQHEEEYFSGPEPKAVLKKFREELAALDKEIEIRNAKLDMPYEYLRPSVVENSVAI
12-LOX, sequence (P18054 whole entry): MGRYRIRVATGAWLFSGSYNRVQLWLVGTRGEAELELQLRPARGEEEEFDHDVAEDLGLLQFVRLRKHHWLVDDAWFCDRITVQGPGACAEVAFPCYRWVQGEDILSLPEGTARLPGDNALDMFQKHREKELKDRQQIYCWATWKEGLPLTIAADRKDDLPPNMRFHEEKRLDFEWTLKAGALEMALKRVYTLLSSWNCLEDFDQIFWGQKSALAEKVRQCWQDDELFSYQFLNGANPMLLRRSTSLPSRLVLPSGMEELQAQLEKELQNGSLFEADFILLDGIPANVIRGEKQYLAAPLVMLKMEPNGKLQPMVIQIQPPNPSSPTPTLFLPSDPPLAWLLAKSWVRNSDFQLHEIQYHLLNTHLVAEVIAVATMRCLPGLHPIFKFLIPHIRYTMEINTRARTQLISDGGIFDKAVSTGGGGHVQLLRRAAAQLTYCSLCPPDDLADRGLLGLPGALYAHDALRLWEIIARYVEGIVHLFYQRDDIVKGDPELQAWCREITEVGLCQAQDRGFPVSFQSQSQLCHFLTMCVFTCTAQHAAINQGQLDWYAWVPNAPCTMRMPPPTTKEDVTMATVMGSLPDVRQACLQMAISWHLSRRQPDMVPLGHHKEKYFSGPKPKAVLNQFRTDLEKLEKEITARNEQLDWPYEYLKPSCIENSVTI

| Structure (SMILES) | pIC50 (12-LOX) | Selectivity over 15-LOX (15-LOX) |
| --- | --- | --- |
| [2H]C([2H])([2H])Oc1cccc(CNc2cnc(S(=O)(=O)Nc3nc(-c4ccc(Cl)c(F)c4)c(F)s3)c(C([2H])([2H])[2H])c2)c1O [Compound I-47] | < 6.00 | <20-fold |
| COc1cccc(CNc2cnc(S(=O)(=O)Nc3nc(-c4ccc(F)c(Cl)c4)c(F)s3)cc2C)c1O [Compound I-15] | < 6.00 | <10-fold |
| [2H]C([2H])([2H])Oc1cccc(CNc2cnc(S(=O)(=O)Nc3nc(-c4ccc(F)c(F)c4)c(F)s3)c(C)c2)c1O [Compound I-50] | 6.00 to 6.60 | >50-fold |
| COc1cccc(CN(C)c2cnc(S(=O)(=O)Nc3nc(-c4ccc(F)c(F)c4)cs3)c(C)c2)c1O [Compound I-19] | < 6.00 | – |
| COc1cccc(CNc2cnc(S(=O)(=O)Nc3nc(-c4ccc(F)c(Cl)c4)c(F)s3)c(C3CC3)c2)c1O [Compound I-43] | < 6.00 | <20-fold |
| COc1cccc(CNc2ccc(S(=O)(=O)Nc3nc(-c4ccc(F)c(Cl)c4)c(F)s3)nc2C)c1O [Compound I-14] | 6.00 to 6.60 | ~10-fold |
| COc1cccc(CNc2ccc(S(=O)(=O)Nc3nc(-c4ccc(F)c(Cl)c4)cs3)nc2)c1O [Compound I-9] | 6.00 to 6.60 | >50-fold |
| CCOc1cccc(CNc2cnc(S(=O)(=O)Nc3nc(-c4ccc(F)c(Cl)c4)c(F)s3)c(C)c2)c1O [Compound I-46] | < 6.00 | <20-fold |
| Cc1cc(NCc2cccc(OC(F)(F)F)c2O)cnc1S(=O)(=O)Nc1nc(-c2ccc(F)c(Cl)c2)c(F)s1 [Compound I-45] | < 6.00 | <20-fold |
| COc1cccc(CNc2cnc(S(=O)(=O)Nc3nc(-c4ccc(F)c(F)c4)c(F)s3)c(C(F)(F)F)c2)c1O [Compound I-22] | < 6.00 | <10-fold |
| COc1cccc(CNc2ccc(S(=O)(=O)Nc3nc4ccccc4s3)nc2)c1O [Compound I-10] | < 6.00 | – |
| [2H]C([2H])([2H])Oc1cccc(CNc2cnc(S(=O)(=O)Nc3nc(-c4ccc(Cl)c(F)c4)c(F)s3)c(C)c2)c1O [Compound I-48] | > 6.60 | >50-fold |
| COc1cccc(CNc2cnc(S(=O)(=O)Nc3nc(-c4ccc(F)c(F)c4)cs3)c(C)c2)c1O [Compound I-39] | > 6.60 | >50-fold |
| COc1cccc(CNc2ccc(S(=O)(=O)Nc3nc4c(ccc5ccccc54)s3)nc2)c1O [Compound I-13] | > 6.60 | >50-fold |
| COc1cccc(CNc2ccc(S(=O)(=O)Nc3nc(-c4ccc(F)c(Cl)c4)c(F)s3)nc2)c1O [Compound I-1] | > 6.60 | >50-fold |
| COc1cccc(CNc2ccc(S(=O)(=O)Nc3nc(-c4ccc(F)c(Cl)c4)c(CO)s3)nc2)c1O [Compound I-24] | > 6.60 | >50-fold |
| COc1cccc(CNc2ccc(S(=O)(=O)Nc3nc(-c4ccc(C(C)C)cc4)cs3)nc2)c1O [Compound I-4] | > 6.60 | >50-fold |
| COc1cccc(CN(C)c2ccc(S(=O)(=O)Nc3nc(-c4ccc(F)c(F)c4)c(F)s3)nc2)c1O [Compound I-11] | 6.00 to 6.60 | >20-fold |
| COc1cccc(CNc2ccc(S(=O)(=O)Nc3nc(-c4ccc(F)c(F)c4)cs3)nc2)c1O [Compound I-7] | > 6.60 | >50-fold |
| COc1cccc(CNc2ccc(S(=O)(=O)Nc3nc(-c4ccc(C(C)C)cc4)c(F)s3)nc2)c1O [Compound I-3] | > 6.60 | >20-fold |
| COc1cccc(CNc2ccc(S(=O)(=O)Nc3nc(-c4ccc(Cl)c(F)c4)cs3)nc2)c1O [Compound I-8, N-(4-(4-chloro-3-fluorophenyl)thiazol-2-yl)-5-((2-hydroxy-3-methoxybenzyl)amino)pyridine-2-sulfonamide] | > 6.60 | >50-fold |

Now from value to compound:

| pIC50 (12-LOX) | Selectivity over 15-LOX (15-LOX) | Structure (SMILES) |
| --- | --- | --- |
| > 6.60 | >50-fold | COc1cccc(CNc2ccc(S(=O)(=O)Nc3nc(-c4ccc(C5CC5)cc4)cs3)nc2)c1O [Compound I-5] |
| > 6.60 | >50-fold | COc1cccc(CNc2ccc(S(=O)(=O)Nc3nc(-c4ccc(C(F)(F)F)c(F)c4)cs3)nc2)c1O [Compound I-12] |
| > 6.60 | >50-fold | [2H]C([2H])([2H])Oc1cccc(CNc2ccc(S(=O)(=O)Nc3nc(-c4ccc(Cl)c(F)c4)c(F)s3)nc2)c1O [Compound I-49] |
| > 6.60 | >50-fold | [2H]C([2H])([2H])Oc1cccc(CNc2cnc(S(=O)(=O)Nc3nc(-c4ccc(F)c(Cl)c4)c(F)s3)c(C)c2)c1O [Compound I-51] |
| > 6.60 | >50-fold | COc1cccc(CNc2ccc(S(=O)(=O)Nc3nc(-c4ccc(F)c(F)c4)c(F)s3)nc2)c1O [Compound I-6] |
| > 6.60 | >50-fold | COc1cccc(CNc2cnc(S(=O)(=O)Nc3nc(-c4ccc(F)c(Cl)c4)c(F)s3)c(-c3ccccc3)c2)c1O [Compound I-42] |
| > 6.60 | >20-fold | COc1cccc(CNc2cnc(S(=O)(=O)Nc3nc(-c4ccc(F)c(Cl)c4)c(F)s3)c(C(F)(F)F)c2)c1O [Compound I-17] |
| > 6.60 | >50-fold | COc1cccc(CNc2cnc(S(=O)(=O)Nc3nc(-c4ccc(F)c(F)c4)c(F)s3)c(C)c2)c1O [Compound I-18, N-(4-(3,4-difluorophenyl)-5-fluorothiazol-2-yl)-5-((2-hydroxy-3-methoxybenzyl)amino)-3-methylpyridine-2-sulfonamide] |
| > 6.60 | >50-fold | COc1cccc(CNc2ccc(S(=O)(=O)Nc3nc(-c4ccc(Cl)c(F)c4)c(F)s3)nc2)c1O [Compound I-2] |
| > 6.60 | >50-fold | COc1cccc(CNc2ccc(S(=O)(=O)Nc3nc(-c4ccc(C(F)(F)F)c(F)c4)c(F)s3)nc2)c1O [Compound I-25] |
| > 6.60 | >50-fold | COc1cccc(CNc2cnc(S(=O)(=O)Nc3nc(-c4ccc(Cl)c(F)c4)c(F)s3)c(C)c2)c1O [Compound I-23] |
| > 6.60 | >50-fold | COc1cccc(CNc2cnc(S(=O)(=O)Nc3nc(-c4ccc(F)c(Cl)c4)c(F)s3)c(C)c2)c1O [Compound I-16] |
| > 6.60 | >50-fold | COc1cccc(CNc2cnc(S(=O)(=O)Nc3nc(-c4ccc(Cl)c(F)c4)cs3)c(C)c2)c1O [Compound I-40] |
| > 6.60 | >50-fold | COc1cccc(CNc2cnc(S(=O)(=O)Nc3nc(-c4ccc(F)c(Cl)c4)cs3)c(C)c2)c1O [Compound I-41] |
